According to US20180194762A1 (Pharmacyclics LLC, priority 2017, published 2018):
Where two headings read alike, the source gives them in different places.

Columns and labels:
Assay type in all cases: biochemical
Btk = molecular target: T1, Btk (Homo sapiens, UniProt Q06187); assay: Btk in vitro inhibitory activity (one of Method A TR-FRET, Method B electrophoretic mobility shift, Method C radiometric filter binding)
T1 construct: purified from insect cells as a full-length construct containing a N-terminal 6X-His tag; His6 (N); made in house; host or cells: insect cells (Method C)
Outline: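 Three alternative formats were used. A radiometric filter-binding read used 8 nM full-length His-BTK with 0.2 mg/mL poly(Glu-Tyr) 4:1 (C); microfluidic separation of 1 μM FAM-peptide by 1 nM BTK gave IC50 from 12-point curves (B); TR-FRET at Km ATP, 0.5 nM Btk, gave Ki(app)-derived IC50 (A).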

TEC = molecular target: T2, TEC (Homo sapiens, UniProt P42680); assay: Inhibition of a panel of kinases (in vitro HotSpot kinase assay, 33P-ATP, 1 μM ATP); conditions: for IC50: HotSpot kinase assay, 1 μM ATP; for TEC/Btk: ratio of TEC IC50 to Btk IC50 (selectivity)
T2 sequence (P42680 1-631): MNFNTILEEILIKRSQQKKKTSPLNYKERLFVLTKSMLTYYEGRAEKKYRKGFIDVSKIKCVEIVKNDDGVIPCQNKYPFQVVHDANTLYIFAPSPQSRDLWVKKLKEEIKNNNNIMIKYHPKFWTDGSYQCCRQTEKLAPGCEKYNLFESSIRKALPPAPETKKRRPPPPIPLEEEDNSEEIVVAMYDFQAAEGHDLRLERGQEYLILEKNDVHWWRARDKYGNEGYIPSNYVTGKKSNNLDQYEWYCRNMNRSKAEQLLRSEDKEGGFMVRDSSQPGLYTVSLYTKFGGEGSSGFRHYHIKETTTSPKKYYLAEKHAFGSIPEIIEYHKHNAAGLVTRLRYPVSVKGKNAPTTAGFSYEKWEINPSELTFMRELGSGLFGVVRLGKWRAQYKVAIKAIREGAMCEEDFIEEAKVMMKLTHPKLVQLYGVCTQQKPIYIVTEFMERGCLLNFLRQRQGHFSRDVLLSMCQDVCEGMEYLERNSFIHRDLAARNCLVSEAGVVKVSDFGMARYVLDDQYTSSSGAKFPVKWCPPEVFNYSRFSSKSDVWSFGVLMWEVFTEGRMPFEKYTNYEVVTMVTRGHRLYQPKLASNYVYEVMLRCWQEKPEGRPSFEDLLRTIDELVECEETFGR
Outline: (§1)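 Radiometric read-out: 33P transfer to a suitable substrate by each purified enzyme, ATP at 1 μM. Values are degree of inhibition.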

panel of kinases = molecular target: T3, panel of kinases (Homo sapiens, UniProt P51813); assay: Inhibition of a panel of kinases (in vitro HotSpot kinase assay, 33P-ATP, 1 μM ATP), other kinases; conditions: BMX wild-type, read-out: BMX-WT IC50
T3 sequence (P51813 1-675): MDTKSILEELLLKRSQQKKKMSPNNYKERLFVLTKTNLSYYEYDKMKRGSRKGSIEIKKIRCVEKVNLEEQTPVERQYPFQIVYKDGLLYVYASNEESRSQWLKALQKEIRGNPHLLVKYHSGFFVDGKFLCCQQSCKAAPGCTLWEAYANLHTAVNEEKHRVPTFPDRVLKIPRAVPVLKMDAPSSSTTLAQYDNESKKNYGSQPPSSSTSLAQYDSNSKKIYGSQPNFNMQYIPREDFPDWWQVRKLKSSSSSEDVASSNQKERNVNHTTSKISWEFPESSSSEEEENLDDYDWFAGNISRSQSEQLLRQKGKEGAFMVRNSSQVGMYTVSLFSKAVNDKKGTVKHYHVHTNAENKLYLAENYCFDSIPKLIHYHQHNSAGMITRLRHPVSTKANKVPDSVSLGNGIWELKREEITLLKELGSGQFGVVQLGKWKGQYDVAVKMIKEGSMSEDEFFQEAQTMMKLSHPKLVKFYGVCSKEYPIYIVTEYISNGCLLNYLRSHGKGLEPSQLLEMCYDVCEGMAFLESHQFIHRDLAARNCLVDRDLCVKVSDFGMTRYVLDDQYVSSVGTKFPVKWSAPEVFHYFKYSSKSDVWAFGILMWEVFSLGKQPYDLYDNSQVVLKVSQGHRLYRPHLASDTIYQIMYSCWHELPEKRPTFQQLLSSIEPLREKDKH
Outline: as §1

[1] = method is one of A, B or C, not stated which, read-out: IC50 values against Btk
[2] = wild-type Btk, read-out: Btk-WT IC50

T1 sequence (Q06187 whole entry): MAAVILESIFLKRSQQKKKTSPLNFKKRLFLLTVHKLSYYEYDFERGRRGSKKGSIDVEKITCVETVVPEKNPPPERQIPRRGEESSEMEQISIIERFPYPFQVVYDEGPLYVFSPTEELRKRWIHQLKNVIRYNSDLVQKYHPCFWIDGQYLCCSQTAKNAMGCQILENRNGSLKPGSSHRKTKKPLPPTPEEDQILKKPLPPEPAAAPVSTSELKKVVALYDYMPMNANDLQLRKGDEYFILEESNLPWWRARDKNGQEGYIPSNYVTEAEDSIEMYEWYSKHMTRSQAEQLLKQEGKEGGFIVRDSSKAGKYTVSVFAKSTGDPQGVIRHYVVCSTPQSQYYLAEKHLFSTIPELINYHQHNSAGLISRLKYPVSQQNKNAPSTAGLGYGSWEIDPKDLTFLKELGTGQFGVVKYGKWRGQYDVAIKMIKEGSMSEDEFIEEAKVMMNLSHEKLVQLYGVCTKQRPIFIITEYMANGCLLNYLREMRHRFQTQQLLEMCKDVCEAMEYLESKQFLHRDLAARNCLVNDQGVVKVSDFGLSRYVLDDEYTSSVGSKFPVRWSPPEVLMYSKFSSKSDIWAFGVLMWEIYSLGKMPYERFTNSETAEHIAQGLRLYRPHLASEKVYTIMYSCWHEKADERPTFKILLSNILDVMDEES

IC50 (Btk; [1])	IC50 (Btk; [2])	IC50 (TEC)	TEC/Btk (TEC)	IC50 (panel of kinases)	Compound
< 10 nM	0.889 nM	806 nM	907	1280 nM	CN(C)C(=O)N[C@@H]1CCN(c2n[nH]c3nccc(-c4ccc(CNC(=O)c5noc(C(C)(C)C)n5)c(F)c4)c23)C1 [Example 132, 5-tert-butyl-N-[(4-{3-[(3R)-3-[(dimethylcarbamoyl)amino]pyrrolidin-1-yl]-1H-pyrazolo[3,4-b]pyridin-4-yl}-2-fluorophenyl)methyl]-1,2,4-oxaidazole-3-carboxamide]
–	10.4 nM	5240 nM	504	6080 nM	CN(C)C(=O)N1CC[C@@H](Oc2n[nH]c3nccc(-c4ccc(CNC(=O)c5noc(C(C)(C)C)n5)c(F)c4)c23)C1 [Example 282, 5-tert-butyl-N-{[4-(3-{[(3R)-1-(dimethylcarbamoyl)pyrroli-din-3-yl]oxy}-1H-pyrazolo[3,4-b]pyridin-4-yl)-2-fluorophenyl]methyl}-1,2,4-oxadiazole-3-carboxamide]
–	3.79 nM	2250 nM	–	2580 nM	CC(C)(C)c1nc(C(=O)NCc2ccc(-c3ccnc4[nH]nc(N[C@@H]5CC[C@H](N)C5)c34)cc2F)no1 [Example 315, N-{[4-(3-{[(1R,3S)-3-aminocyclopentyl]amino}-1H-pyrazolo[3,4-b]pyridin-4-yl)-2-fluorophenyl]methyl}-5-tert-butyl-1,2,4-oxadiazole-3-carboxamide]
< 10 nM	0.242 nM	213 nM	880	218 nM	C=CC(=O)N1CC[C@@H](Nc2n[nH]c3nccc(-c4ccc(C5(NC(=O)c6nc(C(C)(C)C)no6)CC5)cc4)c23)C1 [Example 86, 3-tert-butyl-N-{1-[4-(3-{[(3R)-1-(prop-2-enoyl)pyrrolidin-3-yl]amino}-1H-pyrazolo[3,4-b]pyridin-4-yl)phenyl]cyclopropyl}-1,2,4-oxadiazole-5-carboxamide]
< 10 nM	4.78 nM	9450 nM	1977	> 10000 nM	CC(C)N1CC[C@H](Nc2n[nH]c3nccc(-c4ccc(CNC(=O)c5nc(C(C)(C)C)no5)c(F)c4)c23)C1 [Example 163, 3-tert-butyl-N-{[2-fluoro-4-(3-{[(3S)-1-(propan-2-yl)pyrrolidin-3-yl]amino}-1H-pyrazolo[3,4-b]pyridin-4-yl)phenyl]methyl}-1,2,4-oxadiazole-5-carboxamide]
–	5.5 nM	5030 nM	915	387 nM	C[C@H]1CC[C@@H](Nc2n[nH]c3nccc(-c4ccc(CN5CCn6c(cc7c6CCCC7)C5=O)c(F)c4)c23)CN1C(=O)N(C)C [Example 240, (2S,5R)-5-[(4-{3-fluoro-4-[(1-oxo-3,4,6,7,8,9-hexahydropyrazino[1,2-a]indol-2(1H)-yl)methyl]phenyl}-1H-pyrazolo[3,4-b]pyridin-3-yl)amino]-N,N,2-trimethylpiperidine-1-carboxamide]
< 10 nM	1.28 nM	1330 nM	1039	3580 nM	CCC(=O)N1CC(Nc2n[nH]c3nccc(-c4ccc(CNC(=O)c5noc(C(C)(C)C)n5)c(F)c4)c23)C1 [Example 130, 5-tert-butyl-N-[(2-fluoro-4-{3-[(1-propanoylazetidin-3-yl)amino]-1H-pyrazolo[3,4-b]pyridin-4-yl}phenyl)methyl]-1,2,4-oxadiazole-3-carboxamide]
–	28.6 nM	3010 nM	105	3130 nM	C[C@@H](NC(=O)c1cc(C(C)(C)O)on1)c1ccc(-c2ccnc3[nH]nc(N[C@@H]4CC[C@H](C)N(C(=O)N(C)C)C4)c23)cc1F [Example 192, (2S,5R)-5-[(4-{3-fluoro-4-[(1R)-1-{[5-(2-hydroxypropan-2-yl)-1,2-oxazole-3-carbonyl]amino}ethyl]phenyl}-1H-pyrazolo[3,4-b]pyridin-3-yl)amino]-N,N,2-trimethylpiperidine-1-carboxamide]
–	> 10000 nM	> 10000 nM	–	> 10000 nM	CC(C)(C)c1nc(NC(=O)Nc2ccc(-c3ccnc4[nH]nc(N[C@@H]5CCNC5)c34)cc2F)no1 [Example 155, 3-(5-tert-butyl-1,2,4-oxadiazol-3-yl)-1-[2-fluoro-4-(3-{[(3R)-pyrrolidin-3-yl]amino}-1H-pyrazolo[3,4-b]pyridin-4-yl)phenyl]urea]
–	> 10000 nM	> 10000 nM	–	> 10000 nM	CCc1cc(C(=O)NCc2ccc(-c3ccnc4[nH]nc(N[C@@H]5CCCN[C@@H]5C)c34)cc2F)no1 [Example 170, 5-ethyl-N-{[2-fluoro-4-(3-{[(2R,3R)-2-methylpiperidin-3-yl]amino}-1H-pyrazolo[3,4-b]pyridin-4-yl)phenyl]methyl}-1,2-oxazole-3-carboxamide]
–	31 nM	2380 nM	–	3300 nM	CC(C)c1noc(C(=O)N[C@H](C)c2ccc(-c3ccnc4[nH]nc(N5CCS(=O)(=O)CC5)c34)cc2)n1 [Example 405, N-[(1R)-1-{4-[3-(1,1-dioxo-1λ^6-thiomorpholin-4-yl)-1H-pyrazolo[3,4-b]pyridin-4-yl]phenyl}ethyl]-3-(propan-2-yl)-1,2,4-oxadiazole-5-carboxamide]
–	8.84 nM	2150 nM	243	1720 nM	CC(C)(C)c1nc(C(=O)NCc2ccc(-c3ccnc4[nH]nc(C5=CCNC5)c34)cc2F)no1 [Example 280, 5-tert-butyl-N-({4-[3-(2,5-dihydro-1H-pyrrol-3-yl)-1H-pyrazolo[3,4-b]pyridin-4-yl]-2-fluorophenyl}methyl)-1,2,4-oxadiazole-3-carboxamide]
–	0.0513 nM	57.7 nM	–	61.3 nM	C=CC(=O)N[C@@H]1CCN(c2n[nH]c3nccc(-c4ccc(CN(C)C(=O)c5nc(C(C)(C)C)no5)c(F)c4)c23)C1 [Example 335, 3-tert-butyl-N-{[2-fluoro-4-(3-{(3R)-3-[(prop-2-enoyl)amino]pyrrolidin-1-yl}-1H-pyrazolo[3,4-b]pyridin-4-yl)phenyl]methyl}-N-methyl-1,2,4-oxadiazole-5-carboxamide]
–	85.9 nM	> 10000 nM	>100	> 10000 nM	CC(C)(C)c1nc(C(=O)NCc2ccc(-c3ccnc4[nH]nc(N[C@@H]5CCNC5)c34)c(F)c2)no1 [Example 129, 5-tert-butyl-N-{[3-fluoro-4-(3-{[(3R)-pyrrolidin-3-yl]amino}-1H-pyrazolo[3,4-b]pyridin-4-yl)phenyl]methyl}-1,2,4-oxadiazole-3-carboxamide]
–	6.04 nM	1000 nM	166	761 nM	CC(C)c1noc(C(=O)NCc2ccc(-c3ccnc4[nH]nc(N5CC[C@@H](N)C5)c34)cc2F)n1 [Example 181, N-[(4-{3-[(3R)-3-aminopyrrolidin-1-yl]-1H-pyrazolo[3,4-b]pyridin-4-yl}-2-fluorophenyl)methyl]-3-(propan-2-yl)-1,2,4-oxadiazole-5-carboxamide]
–	0.664 nM	3040 nM	–	2040 nM	C[C@@H](NC(=O)c1nc(C(C)(C)C)no1)c1ccc(-c2ccnc3[nH]nc(N4CCCCC4)c23)cc1 [Example 384, 3-tert-butyl-N-[(1R)-1-{4-[3-(piperidin-1-yl)-1H-pyrazolo[3,4-b]pyridin-4-yl]phenyl}ethyl]-1,2,4-oxadiazole-5-carboxamide]
